This note sets out measurements from ChEMBL document CHEMBL1131750, “A substrate combinatorial array for caspases” (Bioorg Med Chem Lett, 1999).

Molecules are shown by their SMILES. Peptide text beside a SMILES is read from it. * marks the point of attachment. AMC = Cc1cc(=O)oc2cc(N*)ccc12

What all share (type): ADME
A short description of data set [1]: Vmax value of Ac-YVAD-AMC substrate for compound.
A short description of data set [2]: Kinetic Constant of Ac-WVAD-AMC for compound.
A short description of data set [3]: Kinetic Constant of Ac-YVAD-AMC for compound.
Data set [4] in a line: Kinetic Constant of Ac-WEAD-AMC for compound.
Data set [5] is described as follows: Km value of Ac-YVAD-AMC substrate for compound.

By Km is commonly meant the substrate concentration at which the rate is half of its maximum. For the compound `CC(=O)NCC(=O)NCC(=O)N[C@@H](C)C(=O)N[C@@H](CC(=O)O)C(=O)Nc1ccc2c(C)cc(=O)oc2c1` (Ac-GGAD-{AMC}), the Vmax is given as 1060 FU uM-1 in data set [1], 1300 FU uM-1 in data set [2] and 1840 FU uM-1 in data set [4]. The Km came to 27 µM in data set [2], 9 µM in data set [4] and 20 µM in data set [5]. Moreover, the “Vmax / Km” value in data set [2] was 48 FU min-1 uM-1; in data set [3], 53 FU min-1 uM-1; in data set [4] it was 204 FU min-1 uM-1.
